Experimental data published in patent US20250154163A1, “Pyrimidinone-Containing 17-Beta-Hydroxysteroid Dehydrogenase Type 13 Inhibitors” (ENANTA PHARMACEUTICALS, INC., priority 2023, published 2025).

Test system: human precision cut lung slices from a donor with idiopathic pulmonary fibrosis
Assay: Human precision cut lung slice (PCLS) culture, donor with idiopathic pulmonary fibrosis
Format: cell-based
Conditions: IPF donor PCLS; FIG. 2b
Experimental: Human PCLS were generated from lung explants of patients with pulmonary fibrosis (donor ID #221028) or normal donor (donor ID #220730). Cryopreserved hPCLSs were obtained from Institute for In Vitro Sciences (IIVS) and maintained with air-liquid interface culture approach under 37° C., 5% CO2 and 95% humidity. hPCLS were cultured in DMEM-F12 (Invitrogen, Cat No. 11330032) containing 0.2% primocin (Invivogen, Cat No. ant-pm-1) and 1% insulin-transferrin-selenium (ITS-G; Invitrogen, Cat No. 41400045), after initial acclimation in acclimation media, including culture media supplemented with 1% antibiotic antimycotic solution (Invitrogen, Cat No. 15240062), 2 mM Hydrocortisone (Millipore Sigma,) and 5 mg/ml 2-phospho-L-abscorbic acid trisodium salt (Millipore Sigma, Cat No. 49752-10G) for 3 days. Slices of tissue were flatly grown in the tissue culture inserts with 0.4 μm pores of a 12-well plate (StemCell Technologies, Cat No. 1001027), supplemented with 100 μl culture media in the apical side containing PCLSs, and 900 μL culture media in the basal compartment. Media were changed every 48 hours. hPCLS were treated and randomly assigned in replicates of 6-8 per condition 7 days after recovery from cryopreservation. […] IPF donor PCLS were collected at day 8 for subsequent RNA isolation and gene expression quantification. […]

With `COc1ccc(-c2nc3sc4c(O)c(Cl)ccc4c3c(=O)n2Cc2cnco2)c(C2CC2)c1` [Example 26, 7-chloro-2-(2-cyclopropyl-4-methoxyphenyl)-8-hydroxy-3-(oxazol-5-ylmethyl)benzo[4,5]thieno[2,3-d]pyrimidin-4(3H)-one] the “secreted fibronectin (lung fibronectin content)” value was “decreased”.
